Results as given in patent US8912186B2, “Allosteric protein kinase modulators” (Universitaet des Saarlandes, priority 2008, dated 2014).

Experiments:
PDK1 [1] = molecular target: T1, PDK1 (Homo sapiens, UniProt O15530); experiment: cell-free kinase activity assay (ATPgamma[32P], T308tide substrate); format: biochemical; conditions: for AC50: concentration of the compound required to activate half maximally; for AC50 / max. activation of PDK1 (fold): n.e.: no effect; for max. activation of PDK1 (fold): maximum activation achievable, compared to the basal activity of PDK1; for activity at 50 µM: 50 μM compound; for activity at 50 µM / activity at 200 µM: DMSO control set 100%, read-out: percent of catalytic activity of the Kinase in the presence of compound as compared to the solvent control (DMSO): PDK1; for activity at 200 µM: 200 μM compound
T1 construct: GST
T1 sequence (O15530 1-556): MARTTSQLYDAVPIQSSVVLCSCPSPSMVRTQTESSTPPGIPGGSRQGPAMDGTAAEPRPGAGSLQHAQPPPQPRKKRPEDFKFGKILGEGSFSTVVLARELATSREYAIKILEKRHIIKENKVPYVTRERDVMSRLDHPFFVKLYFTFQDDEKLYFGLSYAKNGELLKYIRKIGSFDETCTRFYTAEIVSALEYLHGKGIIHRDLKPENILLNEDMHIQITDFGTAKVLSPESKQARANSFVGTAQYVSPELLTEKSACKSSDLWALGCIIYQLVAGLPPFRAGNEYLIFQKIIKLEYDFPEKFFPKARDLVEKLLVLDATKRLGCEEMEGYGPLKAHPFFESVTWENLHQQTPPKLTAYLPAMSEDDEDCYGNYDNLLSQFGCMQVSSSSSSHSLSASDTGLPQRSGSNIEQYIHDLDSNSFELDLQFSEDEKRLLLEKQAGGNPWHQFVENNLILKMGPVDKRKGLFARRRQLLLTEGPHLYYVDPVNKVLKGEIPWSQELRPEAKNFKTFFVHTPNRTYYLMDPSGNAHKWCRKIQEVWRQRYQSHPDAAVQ
How it was run: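 Radiometric ATPγ[32P] kinase assay; for PDK1, 200 ng enzyme with 1 mM T308tide substrate, run at room temperature for 30 min. Reaction started with ATP-Mg and stopped with phosphoric acid. Incorporated radioactivity measured after spotting on phosphocellulose paper and washing.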

[2] = test system: PC3 prostate carcinoma cells; experiment: MTT assay, number of living cells; format: cell-based; conditions: 36 h; for number of PC3 cells as compared to the DMSO-treated control (proliferation / cell death): serum starved, IGF-I, 5% FCS
Description: Cells were serum starved overnight and stimulated or not with 50 μg/ml IGF-I, then test compounds and 5% FCS were added, and cells grown for 36 h. A standard MTT assay was then performed to measure the number of living cells.
To measure the potency of selected compounds to inhibit growth of a cancer cell line, the widely established MTT assay was used. The assay principle relies on the formation of a purple formazan dye from MTT which has been added to the cultured cells due to mitochondrial reductase activity in intact cells. After 3-4 hours of cell incubation with MTT, formazan crystals develop in living and early apoptotic cells but not in dead cells. MTT is suitable for measuring cell proliferation and cell viability.
Thus the cell's viability critically relies on high activities of this pathway but on the other hand it requires highly efficient inhibitors to hit the cells.

PDK1 [3] = molecular target: T2, PDK1 (Homo sapiens, UniProt O15530); experiment: TNP-ATP fluorescence probe of the ATP binding site conformation; conditions: for TNP-ATP fluorescence intensity in the presence of PDK1: addition to the TNP-ATP-PDK1 mixture
T2 construct: maximal fluorescence intensity of TNP-ATP obtained with addition of 15 μM PDK1 CD
T2 sequence (O15530 82-342 limits assumed): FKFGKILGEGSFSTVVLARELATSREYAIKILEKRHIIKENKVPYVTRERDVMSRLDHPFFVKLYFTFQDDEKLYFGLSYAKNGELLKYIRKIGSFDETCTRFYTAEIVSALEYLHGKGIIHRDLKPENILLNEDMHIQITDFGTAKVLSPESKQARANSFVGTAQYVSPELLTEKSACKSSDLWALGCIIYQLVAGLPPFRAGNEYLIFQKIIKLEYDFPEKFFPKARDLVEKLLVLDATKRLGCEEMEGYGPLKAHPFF
Description: In order to shed further light on the conformational change induced by the binding of small compounds to the PIF-binding pocket of PDK1, we developed a method to probe the ATP binding site conformation in solution with the use of a fluorescent ATP analogue, trinitrophenyl-ATP (TNP-ATP; FIG. 5A). […] Since the decrease in fluorescence intensity was also measured with phosphorylated HM polypeptides and PIFtide, it is likely that the ATP-binding site conformational change measured was actually related to the equivalent events that activate PDK1 by low molecular weight compounds and HM-polypeptides.
(A) TNP-ATP formulae. (B, C and D) Fluorescence intensities are expressed as % of the maximal fluorescence intensity of TNP-ATP obtained with addition of 15 μM PDK1 CD. (B) Effect of PDK1 addition on TNP-ATP fluorescence. (C) Addition of PS08 to the TNP-ATP-PDK1 mixture triggered a concentration dependent decrease of the fluorescence intensity. At 167 μM PS08 (=PS-T-8), the maximum fluorescence intensity was 60%, similar to TNP-ATP alone. (D) Effect of 167 μM PS133, the isomer compound PS08 to the TNP-ATP-PDK1.

PKCζ = molecular target: T3, PKCζ (Homo sapiens, UniProt Q05513); experiment: cell-free kinase activity assay; format: biochemical; conditions: DMSO control set 100%; for remaining activity at 200 µM: 200 μM compound
T3 sequence (Q05513 1-592): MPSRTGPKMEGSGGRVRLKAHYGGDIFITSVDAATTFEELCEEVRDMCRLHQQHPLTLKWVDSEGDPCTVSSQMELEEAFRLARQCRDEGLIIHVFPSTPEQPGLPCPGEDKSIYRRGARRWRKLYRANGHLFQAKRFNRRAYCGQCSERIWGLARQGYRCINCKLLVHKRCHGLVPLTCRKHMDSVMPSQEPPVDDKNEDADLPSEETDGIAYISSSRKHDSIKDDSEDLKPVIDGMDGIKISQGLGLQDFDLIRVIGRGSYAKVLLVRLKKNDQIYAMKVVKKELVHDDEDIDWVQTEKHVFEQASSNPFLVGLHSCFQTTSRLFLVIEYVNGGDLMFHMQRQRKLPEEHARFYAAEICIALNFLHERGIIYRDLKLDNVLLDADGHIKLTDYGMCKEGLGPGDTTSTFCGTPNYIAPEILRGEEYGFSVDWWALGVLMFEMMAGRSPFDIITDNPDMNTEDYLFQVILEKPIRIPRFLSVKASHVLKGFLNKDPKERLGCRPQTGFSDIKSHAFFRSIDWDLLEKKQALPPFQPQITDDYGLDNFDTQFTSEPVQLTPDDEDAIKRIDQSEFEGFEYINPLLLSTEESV

SGK = molecular target: T4, SGK (Homo sapiens, UniProt O00141); experiment: cell-free kinase activity assay; format: biochemical; conditions: DMSO control set 100%; for percent of catalytic activity of the Kinase in the presence of compound as compared to the solvent control (DMSO): SGK: 50 μM compound; for remaining activity at 200 µM: 200 μM compound, read-out: percent of catalytic activity of the Kinase in the presence of compound as compared to the solvent control (DMSO): SGK
T4 sequence (O00141 1-431): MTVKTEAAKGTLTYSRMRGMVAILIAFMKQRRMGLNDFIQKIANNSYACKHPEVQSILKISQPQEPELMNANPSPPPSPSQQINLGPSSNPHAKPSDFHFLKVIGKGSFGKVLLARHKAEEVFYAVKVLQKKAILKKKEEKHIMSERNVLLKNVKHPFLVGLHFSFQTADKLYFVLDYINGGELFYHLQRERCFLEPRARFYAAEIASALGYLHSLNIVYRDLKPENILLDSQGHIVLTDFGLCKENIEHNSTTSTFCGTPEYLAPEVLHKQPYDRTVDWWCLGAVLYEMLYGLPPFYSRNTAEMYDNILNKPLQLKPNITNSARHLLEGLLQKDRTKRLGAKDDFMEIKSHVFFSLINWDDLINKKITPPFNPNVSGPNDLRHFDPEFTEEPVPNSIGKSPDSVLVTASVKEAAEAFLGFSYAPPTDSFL

PRK2 = PRK2 (Homo sapiens, UniProt Q16513); experiment: cell-free kinase activity assay; format: biochemical; conditions: DMSO control set 100%
Sequence of PRK2 (Q16513 whole entry, species assumed): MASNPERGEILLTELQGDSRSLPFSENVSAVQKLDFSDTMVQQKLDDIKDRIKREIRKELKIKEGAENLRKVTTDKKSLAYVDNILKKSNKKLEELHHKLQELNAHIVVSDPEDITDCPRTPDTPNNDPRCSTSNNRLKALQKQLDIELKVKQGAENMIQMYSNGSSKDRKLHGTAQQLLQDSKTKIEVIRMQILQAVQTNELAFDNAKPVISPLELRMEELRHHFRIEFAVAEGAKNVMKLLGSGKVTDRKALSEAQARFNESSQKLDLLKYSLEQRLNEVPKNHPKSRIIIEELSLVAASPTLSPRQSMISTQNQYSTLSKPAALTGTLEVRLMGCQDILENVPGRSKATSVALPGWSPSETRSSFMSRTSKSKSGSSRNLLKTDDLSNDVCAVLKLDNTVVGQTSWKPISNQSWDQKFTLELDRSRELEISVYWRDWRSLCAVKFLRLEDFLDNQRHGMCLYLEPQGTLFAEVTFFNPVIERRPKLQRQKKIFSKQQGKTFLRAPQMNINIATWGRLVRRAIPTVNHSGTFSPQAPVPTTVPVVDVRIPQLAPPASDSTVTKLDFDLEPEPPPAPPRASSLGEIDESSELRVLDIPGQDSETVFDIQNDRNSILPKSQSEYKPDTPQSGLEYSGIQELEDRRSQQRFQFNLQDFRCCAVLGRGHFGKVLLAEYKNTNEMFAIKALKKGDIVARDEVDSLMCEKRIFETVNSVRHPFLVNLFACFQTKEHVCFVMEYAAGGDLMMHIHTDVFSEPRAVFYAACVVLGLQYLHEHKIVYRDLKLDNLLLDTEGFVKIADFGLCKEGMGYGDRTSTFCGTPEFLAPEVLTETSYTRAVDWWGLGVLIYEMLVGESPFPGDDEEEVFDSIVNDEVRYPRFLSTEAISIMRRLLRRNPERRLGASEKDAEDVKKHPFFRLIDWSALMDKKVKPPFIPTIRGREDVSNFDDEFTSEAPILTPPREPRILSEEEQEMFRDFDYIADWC

S6K = S6K (Homo sapiens, UniProt P23443); experiment: cell-free kinase activity assay; format: biochemical; conditions: DMSO control set 100%; for percent of catalytic activity of the Kinase in the presence of compound as compared to the solvent control (DMSO): S6K: 50 μM compound; for remaining activity at 200 µM: 200 μM compound, read-out: percent of catalytic activity of the Kinase in the presence of compound as compared to the solvent control (DMSO): S6K
Sequence of S6K (P23443 whole entry): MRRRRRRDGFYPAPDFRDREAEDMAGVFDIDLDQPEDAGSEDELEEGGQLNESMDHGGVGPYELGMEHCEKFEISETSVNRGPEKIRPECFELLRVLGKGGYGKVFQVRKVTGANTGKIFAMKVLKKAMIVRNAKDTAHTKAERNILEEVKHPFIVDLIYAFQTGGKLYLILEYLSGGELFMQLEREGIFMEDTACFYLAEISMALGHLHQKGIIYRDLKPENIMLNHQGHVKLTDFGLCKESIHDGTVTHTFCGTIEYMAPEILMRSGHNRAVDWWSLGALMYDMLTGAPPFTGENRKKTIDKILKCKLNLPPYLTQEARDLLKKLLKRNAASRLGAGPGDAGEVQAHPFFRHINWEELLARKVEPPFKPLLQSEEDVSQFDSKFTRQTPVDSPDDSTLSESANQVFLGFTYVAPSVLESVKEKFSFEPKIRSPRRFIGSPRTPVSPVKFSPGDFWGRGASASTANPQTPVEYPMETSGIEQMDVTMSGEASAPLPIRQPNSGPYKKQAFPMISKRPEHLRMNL

PKBβ = PKBβ (Homo sapiens, UniProt P31751); experiment: cell-free kinase activity assay; format: biochemical; conditions: DMSO control set 100%
Sequence of PKBβ (P31751 whole entry, species assumed): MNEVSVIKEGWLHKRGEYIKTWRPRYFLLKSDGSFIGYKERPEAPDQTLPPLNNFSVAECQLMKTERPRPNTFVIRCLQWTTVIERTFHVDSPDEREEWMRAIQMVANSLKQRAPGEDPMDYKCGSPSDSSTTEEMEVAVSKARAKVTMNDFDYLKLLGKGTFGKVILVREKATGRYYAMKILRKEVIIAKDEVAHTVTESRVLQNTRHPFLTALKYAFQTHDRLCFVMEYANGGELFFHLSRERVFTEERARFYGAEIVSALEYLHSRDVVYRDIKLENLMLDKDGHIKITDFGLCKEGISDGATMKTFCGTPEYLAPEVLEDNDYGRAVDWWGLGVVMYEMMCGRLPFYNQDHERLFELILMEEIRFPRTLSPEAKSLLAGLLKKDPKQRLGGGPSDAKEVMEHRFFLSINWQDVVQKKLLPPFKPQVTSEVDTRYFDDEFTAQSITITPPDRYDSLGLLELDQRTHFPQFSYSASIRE

PKA = PKA (Homo sapiens, UniProt P17612); experiment: cell-free kinase activity assay; format: biochemical; conditions: DMSO control set 100%
[4] = read-out: percent of catalytic activity of the Kinase in the presence of compound as compared to the solvent control (DMSO): PKCζ

SMILES | AC50 (PDK1 [1]) | max. activation of PDK1 (fold) (PDK1 [1]) | TNP-ATP fluorescence intensity in the presence of PDK1 (PDK1 [3]) | activity at 50 µM (PDK1 [1]) | activity at 200 µM (PDK1 [1]) | remaining activity at 200 µM (PKCζ; [4]) | percent of catalytic activity of the Kinase in the presence of compound as compared to the solvent control (DMSO): SGK (SGK) | remaining activity at 200 µM (SGK) | percent of catalytic activity of the Kinase in the presence of compound as compared to the solvent control (DMSO): PRK2 (PRK2; 50 μM compound) | percent of catalytic activity of the Kinase in the presence of compound as compared to the solvent control (DMSO): PRK2 (PRK2; 200 μM compound) | percent of catalytic activity of the Kinase in the presence of compound as compared to the solvent control (DMSO): S6K (S6K) | remaining activity at 200 µM (S6K) | percent of catalytic activity of the Kinase in the presence of compound as compared to the solvent control (DMSO): PKBβ (PKBβ; 50 μM compound) | percent of catalytic activity of the Kinase in the presence of compound as compared to the solvent control (DMSO): PKA (PKA; 50 μM compound) | further results
O=C(O)/C=C(/CSc1ccc(Cl)cc1)c1ccccc1 [PS 99, (E)-4-(4-Chlorophenylthio)-3-phenylbut-2-enoic acid] | 22.8 µM | 2.6 fold |  |  |  |  |  |  |  |  |  |  |  |  | concentration at which effects were detectable ([2]; PC3 cells): 10 to 20 µM; number of PC3 cells as compared to the DMSO-treated control (proliferation / cell death) [2]: can inhibit the proliferation of/or induce cell death of cancer cells; number of PC3 cells as compared to the DMSO-treated control (proliferation / cell death) ([2]; listed as PS99): significantly reduced
O=C(O)/C=C(\CCc1ccc(Br)cc1F)c1ccccc1 [PS 133, (E)-5-(4-Bromo-2-fluorophenyl)-3-phenylpent-2-enoic acid] |  |  | did not affect |  |  |  |  |  |  |  |  |  |  |  | 
O=C(O)CC(Cc1nc2cc(Cl)c(Cl)cc2[nH]1)c1ccccc1 (stereo not drawn) [PS 163, 4-(5,6-Dichloro-2-benzimidazolyl)-3-phenylbutanoic acid] |  |  |  | ~250% | > 250% | 50% | no effect | ~60% | no effect | no effect | no effect | ~50% | no effect | no effect | percent of catalytic activity of the Kinase in the presence of compound as compared to the solvent control (DMSO): PKCζ (PKCζ; 50 μM compound): no effect; percent of catalytic activity of the Kinase in the presence of compound as compared to the solvent control (DMSO): PKBβ (PKBβ; 200 μM compound): no effect; percent of catalytic activity of the Kinase in the presence of compound as compared to the solvent control (DMSO): PKA (PKA; 200 μM compound): no effect
O=C(O)/C=C(/CCc1ccc(C(F)(F)F)cc1)c1ccccc1 [PS-T5, (Z)-3-Phenyl-5-[4-(trifluoromethyl)phenyl]pent-2-enoic acid] | 13.8 µM | 4.7 fold |  | > 250% | > 250% | ~0% | weak inhib. | ~20% | no effect | no effect | no effect | ~60% | no effect | no effect | remaining activity at 50 µM (PKCζ; 50 μM compound, read-out: percent of catalytic activity of the Kinase in the presence of compound as compared to the solvent control (DMSO): PKCζ): ~0%; remaining activity at 200 µM (PKBβ; 200 μM compound, read-out: percent of catalytic activity of the Kinase in the presence of compound as compared to the solvent control (DMSO): PKBβ): ~80%; remaining activity at 200 µM (PKA; 200 μM compound, read-out: percent of catalytic activity of the Kinase in the presence of compound as compared to the solvent control (DMSO): PKA): ~60%
O=C(O)/C=C(/CCc1ccc(Br)cc1F)c1ccccc1 [PS-T8, (Z)-5-(4-Bromo-2-fluorophenyl)-3-phenylpent-2-enoic acid] |  |  | concentration-dependent decrease |  |  |  |  |  |  |  |  |  |  |  | maximum fluorescence intensity of TNP-ATP (PDK1 [3]; 167 μM compound, % of the maximal fluorescence intensity of TNP-ATP obtained with 15 μM PDK1 CD): 60%
CO[C@H]1C[C@@H]2CC[C@@H](C)[C@@](O)(O2)C(=O)C(=O)N2CCCC[C@H]2C(=O)O[C@H]([C@H](C)C[C@@H]2CC[C@@H](O)[C@H](OC)C2)CC(=O)[C@H](C)/C=C(\C)[C@@H](O)[C@@H](OC)C(=O)[C@H](C)C[C@H](C)/C=C/C=C/C=C/1C [rapamycin, reference compound] |  |  |  |  |  |  |  |  |  |  |  |  |  |  | EC50 ([2]; Homo sapiens, PC-3, PC3 cells, control drug): ~1 µM
